This note sets out measurements from ChEMBL document CHEMBL1201862, “PubChem BioAssay data set” (2004).

Common to all, as to assay: NCI-60 cell line screen, 48 h
Experiment [1] relates to SF-295.
Experiment [2] relates to SNB-75.
Experiment [3] deals with NCI-H23.
Experiment [4] concerns Hs-578T.
The subject of experiment [5] is TK-10.
Experiment [6] concerns A549.
The subject of experiment [7] is MDA-MB-231.
Experiment [8] deals with MDA-N.
Experiment [9] relates to MCF7.
The subject of experiment [10] is 786-0.
For experiment [11], the system named is CCRF-CEM.
The test system of experiment [12] is SK-OV-3.
Experiment [13] relates to SK-MEL-28.
Experiment [14] has as its system SW-620.
Experiment [15] relates to DU-145.
Experiment [16] has as its system SK-MEL-5.
Experiment [17] has as its system UO-31.
Experiment [18] has as its system RXF 393.
In experiment [19] the test system is NCI-H460.

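Interpolation was linear, between the two tested concentrations surrounding the appropriate level; five concentrations were tested over 48 hours in 96-well plates. Abbreviation: GI50, concentration required for 50% inhibition of growth.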 Activity calls are given as the source filed them. Rule as the data show it: active = GI50 up to about 1.1 µM and inactive = higher. Bounds are passed on as bounds.

In the case of `Cc1ccc(C(=O)/C=C2\Nc3ccccc3N=C2NC23CC4CC(CC(C4)C2)C3)cc1`, the GI50 in experiment [1], in experiment [2], in [3], in experiment [4], in experiment [5] and in experiment [6] was > 10 µM (inactive) each time. The GI50 in experiment [7] is > 10 µM (inactive); in experiment [8], > 10 µM (inactive); in [9], > 10 µM (inactive); in [10], > 10 µM (inactive); in experiment [11] it was 1 µM (active); in experiment [12], > 10 µM (inactive). The GI50 is > 10 µM (inactive) in experiment [13], 7.24 µM (inactive) in [14], > 10 µM (inactive) in [15] and > 10 µM (inactive) in experiment [16].
As to `COc1cc2c3c(n(Cc4ccccc4)c(=O)c2cc1OC)-c1ccccc1C3=O`, the GI50 in [1] is > 100 µM (inactive); in [2], 32.3 µM (inactive); in experiment [3], > 100 µM (inactive); in experiment [4], 63.7 µM (inactive); in experiment [5], > 100 µM (inactive); in experiment [6], > 100 µM (inactive). Moreover, the GI50 is > 100 µM (inactive) in experiment [7]; > 100 µM (inactive) in experiment [17]; > 100 µM (inactive) in [18]; > 100 µM (inactive) in experiment [8]; > 100 µM (inactive) in experiment [9]; 93.5 µM (inactive) in experiment [10]. Also, the GI50 was 17.9 µM (inactive) in experiment [11]; 26.7 µM (inactive) in [19]; > 100 µM (inactive) in [13]; > 100 µM (inactive) in experiment [14]; > 100 µM (inactive) in experiment [15]; > 100 µM (inactive) in experiment [16].
Regarding `CC(C)C1=CC23CCC4C(C)(C(=O)O)CCCC4(C)C2CC1C1C(=O)N(c2ccc(C(=O)O)cc2)C(=O)C13` (centres undefined), the GI50 in [1], in experiment [2], in experiment [3], in experiment [4], in experiment [5] and in [6] was > 100 µM (inactive) each time. Further, the GI50 in [7], in experiment [17], in [18], in experiment [8], in experiment [9] and in experiment [10] was > 100 µM (inactive) each time. Moreover, the GI50 in experiment [19], in experiment [12], in experiment [13], in experiment [14], in experiment [15] and in experiment [16] was > 100 µM (inactive) in each case.
As to `COc1cc(C=O)ccc1O` [VANILLIN], the GI50 in experiment [1], in [2], in experiment [3], in [4], in [5] and in [6] was > 100 µM (inactive) each time. In addition, the GI50 in [7], in [17], in [8], in experiment [9], in experiment [10] and in experiment [11] was > 100 µM (inactive) throughout. The GI50 in [19], in [13], in [14], in experiment [15] and in experiment [16] was > 100 µM (inactive) throughout.
